Like-named read-outs stand apart in the source and are kept apart here.
How the values were obtained:
[1] = system: anaphylaxie passive cutanée; experiment: Passive cutaneous anaphylaxis test in rats; format: in vivo, rats mâles Sprague Dawley; conditions: for ED50: read-out: DE 50 voie po
Description: L'activité antiallergique a été déterminée dans le test de l'anaphylaxie passive cutanée de la façon suivante. On administre à des rats mâles Sprague Dawley par voie intradermique 0,1 ml de sérum riche en IgE. Ce sérum a été fabriqué en sensibilisant des rats Sprague-Dawley par une injection ip d'ovalbumine et de suspension de Bordetella pertusis suivie 20 j après par une nouvelle injection d'ovalbumine. 24 heures après administration du sérum on injecte par voie iv 0,5 ml d'une solution contenant 8,25 mg/kg d'ovalbumine et 26,4 mg/kg de bleu d'Evans dans un tampon pH 7,05. Au bout de 30 mn les animaux sont sacrifiés; chaque papule est découpée, pesée et mise à incuber pendant 4 j à 37°C dans 15 g de formamide. La quantité de bleu d'Evans contenue dans chaque papule est déterminée par la mesure de la densité optique du mélange. Le produit à tester est administré par voie orale ou intrapéritonéale en suspension homogène en présence de tween 80, 10 mn avant l'injection déclenchante. Son activité est appréciée par le pourcentage de diminution de la quantité de bleu d'Evans ayant diffusé dans la papule. Les DE 50 de certains produits de la présente invention sont indiquées dans le tableau V.

[2] = system: souris Swiss; experiment: Oral (intragastric) toxicity, mortality in mice; format: in vivo; conditions: mouse, solvent as in the source
Text: La mortalité induite par ces substances a été déterminée chez la souris Swiss exempte d'organismes pathogènes spécifiques. Les animaux sont stabulés en salle climatisée 24 à 48 heures avant le début de l'expérimentation. Les substances sont administrées soit par voie intragastrique en solution dans de l'huile d'olive ou du tween, soit par voie intrapéritonéale en solution dans du tween. Les résultats sont exprimés dans les tableaux I et II par le pourcentage de mortalité en fonction de la dose administrée ou par la dose induisant 50 % de mortalité (DL 50) déterminée par la méthode de Bliss.

[3] = system: motilité chez la souris; experiment: Motility (actimeter) in mice, sedative effect; format: in vivo; conditions: ip route, mouse, Litchfield Wilcoxon method
Text: L'effet des substances sur la motilité est appréciée chez la souris en utilisant un actimètre. Les animaux sont placés dans la cage d'activométrie et à partir du nombre de déplacements enregistrés par l'appareil,on obtient pour chaque dose considérée le pourcentage de l'effet observé par rapport au lot témoin. Ces pourcentages sont reportés sur un papier à l'échelle log-probit et la méthode de Litchfield Wilcoxon permet de calculer la dose efficace 50 sédative. Le tableau VI donne les DE 50 sédatives pour un certain nombre de produits faisant l'objet de l'invention.

[4] = oral route, rat, given 10 min before challenge, decrease of Evans blue in the papule, limits in brackets

Compound: CN(C)CCCN1c2ccccc2Sc2ccc(Cl)cc21 [Chlorpromazine, reference compound]
- ED50 ([1]; Rattus norvegicus, po): 4.9 mg/kg

Compound: CC(CN1c2ccccc2Sc2ccccc21)N(C)C (stereo not shown) [Prométhazine, reference compound]
- ED50 [1, 4]: 2.9 mg/kg

Compound: (((trifluorométhyl-3 phényl)-4 pipérazinyl)-2 éthyl)-6 N-pyridylidène-3 benzodioxol-1,3 yl-5 amine [COR 3415]
- DE 50 voie po [1, 4]: 20 mg/kg
- % de mortalité en fonction de la dose exprimée en mg/kg ([2]; dose 500 mg/kg): 0%
- % de mortalité en fonction de la dose exprimée en mg/kg ([2]; dose 750 mg/kg): 50%
- % de mortalité en fonction de la dose exprimée en mg/kg ([2]; dose 1000 mg/kg): 60%
- % de mortalité en fonction de la dose exprimée en mg/kg ([2]; dose 2000 mg/kg): 70%

Compound: (phényl-4pipérazinyléthyl)-2 N-pyridylidène-3 aniline [COR 3412]
- DE 50 voie ip ([1]; intraperitoneal route, rat, given 10 min before challenge, decrease of Evans blue in the papule, limits in brackets): 7,52 (3,31 - 17,38) mg/kg
- DE 50 voie po [1, 4]: 11,9 (7,9 - 18,2) mg/kg
- DE 50 sédation [3]: 4 mg/kg

— patent EP0078757A1, “Imines of 2-(4-phenyl-piperazinylethyl) anilines, process for their preparation and their use in medicine” (CORTIAL S.A., priority 1981, dated 1983)
